Test results reported in patent US20050048563A1, “Membrane molecule indicator compositions and methods” (Novasite Pharmaceuticals, Inc, priority 2000, published 2005).

Assays:
PLC = type: cell-based, mouse
[1] = test system: adrenal glomerulosa cells; experiment: Confocal PLCδ1PH-GFP translocation in adrenal glomerulosa cells; type: cell-based, bovine; conditions: angiotensin II stimulation, 2 mM Sr^2+ or Ca^2+

## aluminum fluoride [A1F^4−]
PLC
  desensitization of PLC activation: no desensitization
  onset of PLC activation: slow

## NCCc1c[nH]cn1 [histamine]
PLC
  duration of translocation response: ≥ 15 min
  translocation amplitude relative to BK response control / BK-induced peak values: 40%

## neurokinin A [NKA]
PLC
  desensitization of PLC activation on repeated NKA pulses: incremental partial homologous desensitization
  translocation of the probe (PLC activation profile): fast and near-complete translocation

## CCCCCCCC/C=C\CCCCCCCC(=O)OCC(O)COP(=O)(O)O (centres unmarked) [LPA, 1-oleoyl LPA]
PLC
  translocation amplitude relative to BK response control / BK-induced peak values: 25%

## angiotensin II (DRVYIHPF; Angiotensin-2; UniProt P01019 25-32, looked up)
[1]
  translocation of PLCδ1PH-GFP in presence of Sr^2+ versus Ca^2+: not significantly different
